Patent US6156541A (priority 1998, dated 2000)
Where a SMILES comes first, the peptide text is derived from it. [ ]: non-standard residue; d: D form. The star is where a group is joined. Sta = CC(C)C[C@H](N)[C@@H](O)CC(=O)O; Isovaleryl = CC(C)CC(=O)*

System: Lay2 L chain, human monoclonal antibody light chain (Bence Jones protein, kappa IIc subgroup) from a multiple myeloma patient
Format: biochemical

SMILES	Effect on Lay2-catalyzed gp120 hydrolysis
O=C(O)CN(CCN(CC(=O)O)CC(=O)O)CC(=O)O [EDTA]	without effect
NC(=O)CI [iodoacetamide]	without effect
CC(C)CC(=O)N[C@H](C(=O)N[C@H](C(=O)N[C@@H](CC(C)C)[C@@H](O)CC(=O)N[C@@H](C)C(=O)N[C@@H](CC(C)C)[C@@H](O)CC(=O)O)C(C)C)C(C)C [Pepstatin A] (Isovaleryl-VV[Sta]A[Sta]-OH)	without effect
